Reference: patent publication US20250230165A1, “HETEROCYCLIC COMPOUNDS FOR USE IN THE TREATMENT OF CANCER” (ARTIOS PHARMA LIMITED, priority 2021, published 2025)

Target: T1, Human Polθ polymerase domain (aa1820-2590) (Homo sapiens, UniProt O75417)
T1 construct: Human Polθ polymerase domain (aa1820-2590) was expressed in E. coli; made in house; host or cells: E. coli
T1 sequence (O75417 1820-2590): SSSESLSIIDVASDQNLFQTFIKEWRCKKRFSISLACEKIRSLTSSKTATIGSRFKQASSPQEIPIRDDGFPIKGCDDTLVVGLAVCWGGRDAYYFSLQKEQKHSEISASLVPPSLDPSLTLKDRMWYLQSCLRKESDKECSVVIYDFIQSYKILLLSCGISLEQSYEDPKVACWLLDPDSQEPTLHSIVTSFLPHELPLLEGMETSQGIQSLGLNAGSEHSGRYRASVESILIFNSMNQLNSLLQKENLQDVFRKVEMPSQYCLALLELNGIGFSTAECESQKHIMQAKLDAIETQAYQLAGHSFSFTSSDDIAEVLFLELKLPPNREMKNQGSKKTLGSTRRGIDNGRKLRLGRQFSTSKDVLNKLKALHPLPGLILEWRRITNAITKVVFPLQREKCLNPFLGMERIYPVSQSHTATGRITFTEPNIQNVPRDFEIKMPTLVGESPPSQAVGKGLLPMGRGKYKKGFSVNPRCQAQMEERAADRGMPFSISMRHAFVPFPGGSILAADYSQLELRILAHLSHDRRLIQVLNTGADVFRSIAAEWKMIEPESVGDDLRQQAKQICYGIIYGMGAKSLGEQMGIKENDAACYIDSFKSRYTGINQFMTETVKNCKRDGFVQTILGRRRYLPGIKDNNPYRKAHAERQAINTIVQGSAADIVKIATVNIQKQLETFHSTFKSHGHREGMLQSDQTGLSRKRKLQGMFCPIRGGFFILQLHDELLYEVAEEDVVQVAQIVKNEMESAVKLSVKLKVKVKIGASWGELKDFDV
Test: Polθ Polymerase Domain Kinact/KI Assay (PicoGreen)
Assay type: biochemical
Details: 0.8 nM Polθ, 100 nM DNA substrate, kobs vs [I] fit for 2-step covalent inhibitor
Protocol: Polθ Polymerase Domain Kinact/KI Assay
A PicoGreen assay was used to measure the Kinact and KI values of covalent compounds that inhibit the activity of Polθ in vitro.
Human Polθ polymerase domain (aa1820-2590) was expressed in E. coli, purified, aliquoted and stored at −80° C. until required. Polθ substrate was generated from a 1.2:1 mix of DNA II Short to DNA II Long to give a final concentration of […] substrate in annealing buffer (20 mM Tris pH 7.5, 50 mM NaCl). The substrate was heated in […] aliquots to 95° C. in a heating block for 5 min before the heating block switched off, the reaction left to cool to rt and stored at −20° C. until required.
Assay measurements were performed with 1× buffer comprising 25 mM Tris pH 7.5, 12.5 mM NaCl, […], 5% (v/v) glycerol, 0.01% v/v Triton x-100, 0.1 mg/ml BSA, 1 mM DTT. Test compounds were prepared by dilution in 100% DMSO to give a 12 μM intermediate stock of each (100× final top concentration). 100 nL of 23×1:1.5-fold serial dilutions and a DMSO only control were dispensed using the Tecan dispenser into Greiner 384 well black low volume plates (product code 784076). DMSO concentration was maintained at 1% of the final assay volume by back filling with DMSO.
2× Working stock of substrate (200 nM of DNA substrate and […] dNTPs) and enzyme ([…] PolΘ) were made up in assay buffer. 5 μL/well of both enzyme and substrate 2× solutions were dispensed using a Tempest dispenser (Formulatrix) into assay plates that had been pre-dispensed with compound to give a final assay concentration of 100 nM DNA substrate, […] dNTPs and 0.8 nM Polθ. To stop the reaction, […] of a solution containing 25 mM Tris-HCl pH 7.5 and 20 mM EDTA was added at […] (t=0, 2.5, 5, 7.5, 10, 12.5, 15, 20, 25, 30, 35, 40, 45, 50, 55 and 60 min) using the Tempest's time delay function. The plates were covered during the time course to prevent evaporation. After completing the assay, 5 μL of detection reagent (25 mM Tris-HCl pH 7.5 and 2.5% (v/v) PicoGreen) was dispensed into the wells using a Tempest liquid handler (Formulatrix) and plates subsequently read on the CLARIOstar Plus (BMG Labtech) using the default optical settings for fluorescein and the auto gain/focus settings.
All data analysis was carried out using GraphPad Prism V.8 (GraphPad Software Inc, San Diego, CA) Time course data for each inhibitor concentration was fitted to equation 1 to determine kobs values.^1 Any time points where the control (DMSO alone) reaction was no longer linear were excluded from the analysis. 1) Evaluation of Enzyme Inhibitors in Drug Discovery (Ch9), R. A Copeland, Wiley, 2nd Edition 2013.
A secondary plot of kobs vs [I] is used to determine the Kinact and KI parameters (for a 2-step covalent inhibitor) by fitting to equation 2.^1

Row | Compound | Kinact/Kl [M⁻¹ s⁻¹]
1 | C=CC(=O)N1Cc2nc(CN3C[C@H]4CC(=O)N(c5cc(C(F)(F)F)cc(C)n5)[C@@H]4C(=O)N(C)c4cccc(Cl)c43)cn2CC1C(F)F (mixture of isomers) [Example 243a, (3aR,11aS)-5-(((S/R)-7-acryloyl-6-(difluoromethyl)-5,6,7,8-tetrahydroimidazo[1,2-a]pyrazin-2-yl)methyl)-6-chloro-10-methyl-1-(6-methyl-4-(trifluoromethyl)pyridin-2-yl)-1,3a,4,5,10,11a-hexahydro-2H-benzo[b]pyrrolo[2,3-f][1,4]diazocine-2,11(3H)-dione] | 1.03e+06
2 | C=CC(=O)N1Cc2nc(CN3C[C@H]4CC(=O)N(c5cc(C(F)(F)F)cc(C)n5)[C@@H]4C(=O)N(C)c4cccc(Cl)c43)cn2CC1C(F)F (mixture of isomers) [Example 243b, (3aR,11aS)-5-(((R/S)-7-acryloyl-6-(difluoromethyl)-5,6,7,8-tetrahydroimidazo[1,2-a]pyrazin-2-yl)methyl)-6-chloro-10-methyl-1-(6-methyl-4-(trifluoromethyl)pyridin-2-yl)-1,3a,4,5,10,11a-hexahydro-2H-benzo[b]pyrrolo[2,3-f][1,4]diazocine-2,11(3H)-dione] | 580000
3 | C=CC(=O)NC1CCN(CCN2C[C@H]3CC(=O)N(c4cc(C(F)(F)F)cc(C)n4)[C@@H]3C(=O)N(C)c3cccc(Cl)c32)CC1(F)F (mixture of isomers) [Example 257a, N—((S/R)-1-(2-((3aR,11aS)-6-chloro-10-methyl-1-(6-methyl-4-(trifluoromethyl)pyridin-2-yl)-2,11-dioxo-1,2,3,3a,4,10,11,11a-octahydro-5H-benzo[b]pyrrolo[2,3-f][1,4]diazocin-5-yl)ethyl)-3,3-difluoropiperidin-4-yl)acrylamide] | 2.17e+06
4 | C=CC(=O)NC1CCN(CCN2C[C@H]3CC(=O)N(c4cc(C(F)(F)F)cc(C)n4)[C@@H]3C(=O)N(C)c3cccc(Cl)c32)CC1(F)F (mixture of isomers) [Example 257b, N—((R/S)-1-(2-((3aR,11aS)-6-chloro-10-methyl-1-(6-methyl-4-(trifluoromethyl)pyridin-2-yl)-2,11-dioxo-1,2,3,3a,4,10,11,11a-octahydro-5H-benzo[b]pyrrolo[2,3-f][1,4]diazocin-5-yl)ethyl)-3,3-difluoropiperidin-4-yl)acrylamide] | 2.56e+06
5 | C=CC(=O)N1CCN(CCN2C[C@H]3CC(=O)N(c4cc(C(F)(F)F)cc(C)n4)[C@@H]3C(=O)N(C)c3cccc(Cl)c32)CC1CC#N (mixture of isomers) [Example 258a, 2-((R/S)-1-acryloyl-4-(2-((3aR,11aS)-6-chloro-10-methyl-1-(6-methyl-4-(trifluoromethyl)pyridin-2-yl)-2,11-dioxo-1,2,3,3a,4,10,11,11a-octahydro-5H-benzo[b]pyrrolo[2,3-f][1,4]diazocin-5-yl)ethyl)piperazin-2-yl)acetonitrile] | 1.65e+06
6 | C=CC(=O)N1CCN(CCN2C[C@H]3CC(=O)N(c4cc(C(F)(F)F)cc(C)n4)[C@@H]3C(=O)N(C)c3cccc(Cl)c32)CC1CC#N (mixture of isomers) [Example 258b, 2-((S/R)-1-acryloyl-4-(2-((3aR,11aS)-6-chloro-10-methyl-1-(6-methyl-4-(trifluoromethyl)pyridin-2-yl)-2,11-dioxo-1,2,3,3a,4,10,11,11a-octahydro-5H-benzo[b]pyrrolo[2,3-f][1,4]diazocin-5-yl)ethyl)piperazin-2-yl)acetonitrile] | 1.53e+06
7 | C=CC(=O)N1CCN(CCCN2C[C@H]3CC(=O)N(c4cc(C(F)(F)F)cc(C)n4)[C@@H]3C(=O)N(C)c3cccc(C)c32)CC1C(F)(F)F (mixture of isomers) [Example 265a, (3aR,11aS)-5-(3-((S/R)-4-acryloyl-3-(trifluoromethyl)piperazin-1-yl)propyl)-6,10-dimethyl-1-(6-methyl-4-(trifluoromethyl)pyridin-2-yl)-1,3a,4,5,10,11a-hexahydro-2H-benzo[b]pyrrolo[2,3-f][1,4]diazocine-2,11(3H)-dione] | 3.32e+06
8 | C=CC(=O)N1CCN(CCCN2C[C@H]3CC(=O)N(c4cc(C(F)(F)F)cc(C)n4)[C@@H]3C(=O)N(C)c3cccc(C)c32)CC1C(F)(F)F (mixture of isomers) [Example 265b, (3aR,11aS)-5-(3-((R/S)-4-acryloyl-3-(trifluoromethyl)piperazin-1-yl)propyl)-6,10-dimethyl-1-(6-methyl-4-(trifluoromethyl)pyridin-2-yl)-1,3a,4,5,10,11a-hexahydro-2H-benzo[b]pyrrolo[2,3-f][1,4]diazocine-2,11(3H)-dione] | 1.58e+06
9 | C=CC(=O)N1CCN(CCCN2C[C@H]3CC(=O)N(c4cc(C(F)(F)F)cc(C)n4)[C@@H]3C(=O)N(C)c3cccc(Cl)c32)CC1CC#N (mixture of isomers) [Example 267a, 2-((S/R)-1-acryloyl-4-(3-((3aR,11aS)-6-chloro-10-methyl-1-(6-methyl-4-(trifluoromethyl)pyridin-2-yl)-2,11-dioxo-1,2,3,3a,4,10,11,11a-octahydro-5H-benzo[b]pyrrolo[2,3-f][1,4]diazocin-5-yl)propyl)piperazin-2-yl)acetonitrile] | 1.24e+06
10 | C=CC(=O)N1CCN(CCCN2C[C@H]3CC(=O)N(c4cc(C(F)(F)F)cc(C)n4)[C@@H]3C(=O)N(C)c3cccc(Cl)c32)CC1CC#N (mixture of isomers) [Example 267b, 2-((R/S)-1-acryloyl-4-(3-((3aR,11aS)-6-chloro-10-methyl-1-(6-methyl-4-(trifluoromethyl)pyridin-2-yl)-2,11-dioxo-1,2,3,3a,4,10,11,11a-octahydro-5H-benzo[b]pyrrolo[2,3-f][1,4]diazocin-5-yl)propyl)piperazin-2-yl)acetonitrile] | 3.03e+06
11 | C=C(CN(C)C)C(=O)N[C@@H]1CCc2nc(CN3C[C@H]4CC(=O)N(c5cc(C(F)(F)F)cc(C)n5)[C@@H]4C(=O)N(C)c4cccc(C)c43)cn2C1 (mixture of isomers) [Example 329a, N-((R/S)-2-(((3aR, 11aS)-6,10-dimethyl-1-(6-methyl-4-(tri-fluoromethyl)pyridin-2-yl)-2,11-dioxo-1,2,3,3a,4,10,11,11a-octahydro-5H-benzo [b]pyrrolo[2,3-f][1,4]diazocin-5-yl)methyl)-5,6,7,8-tetrahydro-imidazo[1,2-a]pyridin-6-yl)-2-((dimethyl-amino)methyl)acryl-amide] | 1.73e+06
